{"source": "patent US20220153746A1", "about": "“NITROGEN OXIDE-DONATING PDE-5 AND/OR PDE-6 INHIBITOR COMPOUNDS, AND USES THEREOF” (ILDONG PHARMACEUTICAL CO., LTD., priority 2020, published 2022)", "experiment": "TD Phase (Groups 1 and 3): plasma and ocular tissue concentrations and pharmacokinetics of Compound 18 and its metabolite Compound 4 after once daily ocular instillation of Compound 18 nanosuspension for 7 days", "type": "in vivo, New Zealand white rabbits", "conditions": "for Compound 18 Lens Homogenate Conc.: homogenate dilution factor 5; for Cornea homogenate concentration: homogenate dilution factor 15; for concentration at 1 h: Group 1, 1 h", "excerpt": "This example illustrates the procedures and results for the levels of Compound 18 and its metabolite Compound 4 in plasma and ocular tissues of normotensive rabbits following ocular instillation of Compound 18 once daily for 7 consecutive days.\nTwenty five (25) male New Zealand white rabbits were divided into 5 groups of varying amounts of animals per group.\nThe Test article, Compound 18 was formulated as a 2% nanosuspension in DI water containing 0.2% PS80 (polyoxyethylenesorbitan, monooleate (Tween 80)) and 0.4% HPMC (hydroxypropylmethylcellulose) at pH 6.77. Referred to herein as “Compound 18 nanosuspension.”\nThe study consisted of three groups (Groups 1-3) of 19 male rabbits (NZW) that underwent once daily morning ocular installation (1 eyedrop) for 7 consecutive days (Day 0-6). Groups 4-5 each consisted of 3 male rabbits (NZW) that were not dosed.\nBlood samples (1 mL) were collected from the jugular vein at the intervals set out below for each group. The samples were then inverted several times following collection and held on wet ice until centrifuged. Samples were centrifuged within 60 minutes of collection under refrigeration (set at 5° C. for 10 minutes at 2000 g.\nGroup 1 (Pilot Study, terminal blood collection): blood was collected from 3 animals at 1 hour post day 7 dose of Compound 18 nanosuspension.\nGroup 3 (TD Phase, terminal blood collection): blood was collected from 3 animals at 0.5 hour, 3 animals at 2 hours, 3 animals at 4 hours, and 3 animals at 8 hours post day 7 dose of Compound 18 nanosuspension.\n(§1) Group 1 (Pilot Study): 3 animals were terminated at 1 hour post Day 7 dose of Compound 18 nanosuspension. Following blood collection and termination, ocular tissues (aqueous humor, vitreous humor, cornea, iris/ciliary body, lens, optic nerve, retina, sclera/choroid, and trabecular meshwork) were collected from each animal and the tissue weights were recorded. Note: sclera and choroid were collected together. Iris and ciliary body were collected together.\nas §1, with “3 (TD Phase):” for “1 (Pilot Study):”, “0.5 hour, 3 animals at 2 hours, 3 animals at 4 hours, and 3 animals at 8 hours” for “1 hour”\nPlasma and tissue samples from treated animals (Groups 1-3) were analyzed for Compound 18 and its metabolite Compound 4 concentrations by LC-MS/MS.\nPharmacokinetic analysis was conducted using WinNonlin Version 6.2.1 (Pharsight, Mountain View, Calif.), operating as a validated software system. Noncompartmental analysis was conducted using the extravascular administration model for ocular instillation dosing.\nThe peak plasma and ocular tissue concentration, time to achieve peak plasma and ocular tissue concentration, half-life, and area under the plasma and ocular tissue concentration-time curve (Cmax, Tmax, T1/2, and AUC) were calculated from the TD phase combined with the pilot study mean animal plasma and ocular tissue concentrations for each sampling time/dose group for Compound 18 and its metabolite Compound 4.\nBA Assay: Quantitation Range 0.05 to 100 ng/mL for Compound 18, 0.15 to 100 ng/mL for Compound 4.\n3. Pipet 50 μL of each type of pre-spiked ocular tissue samples (AH/VH) for QC samples, 50 μL of incurred aqueous humor, and vitreous humor sample (if applicable) into a 96 well plate.\nOcular Tissues Homogenate Preparation: Incurred rabbit ocular tissues were weighed in Genogrinder tubes (plastic tubes with small beads) at the time of removal from the animal and stored frozen (<−70° C.) until analysis. The rabbit incurred ocular tissues were thawed on wet ice. […]", "key": {"[1]": {"conditions": "TD Phase, Group 3, 4 h, Mean, BQL set to 0"}, "[2]": {"conditions": "TD Phase, Group 3, 4 h, individual animals"}, "[3]": {"conditions": "TD Phase, Group 3, 4 h, individual animals, BQL set to 0"}, "[4]": {"conditions": "TD Phase, Group 3, 4 h, individual animals, homogenate dilution factor 20"}, "[5]": {"conditions": "TD Phase, Group 3, 8 h, Mean, BQL set to 0"}, "[6]": {"conditions": "TD Phase, Group 3, 8 h, individual animals"}, "[7]": {"conditions": "TD Phase, Group 3, 8 h, individual animals, BQL set to 0"}, "[8]": {"conditions": "TD Phase, Group 3, 8 h, individual animals, homogenate dilution factor 20"}}, "note": "Values joined by “and” are separate entries in the source; they are usually repeats but may differ in a detail not shown here. Identical values can stand only once. Like-named read-outs stand apart in the source and are kept apart here."}
{"smiles": "CCCc1nn(C)c2c(=O)[nH]c(-c3cc(S(=O)(=O)N4CC(CCCO[N+](=O)[O-])C4)ccc3OCC)nc12", "note": "[Compound 18, 3-(1-((4-ethoxy-3-(1-methyl-7-oxo-3-propyl-6,7-dihydro-1H-pyrazolo[4,3-d]pyrimidin-5-yl)phenyl)sulfonyl)azetidin-3-yl)propyl nitrate]", "values": [{"measurement": "Compound 18 Trahecular Meshwork Homogenate Conc.", "setting": "TD Phase, Group 3, 2 h, individual animals, homogenate dilution factor 20", "value": "BQL (BQL = Below lower limit of quantitation (0.0500 ng/mL for Compound 18)"}, {"measurement": "Compound 18 Retina Homogenate Conc.", "setting": "TD Phase, Group 3, 2 h, individual animals, homogenate dilution factor 20 (164 for animal 207671)", "value": "0.192 ng/mL and 3.47 ng/mL and 0.17 ng/mL"}, {"measurement": "Compound 18 Aqueous Humor Conc.", "setting": "[1]", "value": "BQL (BQL = Below lower limit of quantitation (0.0500 ng/mL for Compound 18)"}, {"measurement": "Compound 18 Plasma Conc.", "setting": "[1]", "value": "BQL (BQL = Below lower limit of quantitation (0.0500 ng/mL for Compound 18)"}, {"measurement": "Compound 18 Vitreous Humor Conc.", "setting": "[1]", "value": "BQL (BQL = Below lower limit of quantitation (0.0500 ng/mL for Compound 18)"}, {"measurement": "Compound 18 Aqueous Humor Conc.", "setting": "[2]", "value": "BQL (BQL = Below lower limit of quantitation (0.0500 ng/mL for Compound 18)"}, {"measurement": "Compound 18 Plasma Conc.", "setting": "[2]", "value": "BQL (BQL = Below lower limit of quantitation (0.0500 ng/mL for Compound 18)"}, {"measurement": "Compound 18 Vitreous Humor Conc.", "setting": "[2]", "value": "BQL (BQL = Below lower limit of quantitation (0.0500 ng/mL for Compound 18)"}, {"measurement": "Final Compound 18 Optic Nerve Conc.", "setting": "[2]", "value": "248 ng/g and 31.4 ng/g and 104 ng/g"}, {"measurement": "Final Compound 18 Iris/Ciliary Body Conc.", "setting": "[3]", "value": "5.78 ng/g and 0 ng/g and 8.84 ng/g"}, {"measurement": "Final Compound 18 Lens Conc.", "setting": "[3]", "value": "0 ng/g (2×) and 0.384 ng/g"}, {"measurement": "Final Compound 18 Retina Conc.", "setting": "[3]", "value": "39.6 ng/g and 6.02 ng/g and 36.2 ng/g"}, {"measurement": "Compound 18 Lens Homogenate Conc.", "setting": "[2]", "value": "BQL (BQL = Below lower limit of quantitation (0.0500 ng/mL for Compound 18)"}, {"measurement": "Cornea homogenate concentration", "setting": "[2]", "value": "BQL (BQL = Below lower limit of quantitation (0.0500 ng/mL for Compound 18)"}, {"measurement": "Compound 18 Iris/Ciliary Body Homogenate Conc.", "setting": "[4]", "value": "BQL (BQL = Below lower limit of quantitation (0.0500 ng/mL for Compound 18) and 0.442 ng/mL"}, {"measurement": "Compound 18 Optic Nerve Homogenate Conc.", "setting": "[4]", "value": "12.4 ng/mL and 1.57 ng/mL and 5.20 ng/mL"}, {"measurement": "Compound 18 Retina Homogenate Conc.", "setting": "[4]", "value": "1.98 ng/mL and 0.301 ng/mL and 1.81 ng/mL"}, {"measurement": "Compound 18 Aqueous Humor Conc.", "setting": "[5]", "value": "BQL (BQL = Below lower limit of quantitation (0.0500 ng/mL for Compound 18)"}, {"measurement": "Compound 18 Vitreous Humor Conc.", "setting": "[5]", "value": "BQL (BQL = Below lower limit of quantitation (0.0500 ng/mL for Compound 18)"}, {"measurement": "Compound 18 Aqueous Humor Conc.", "setting": "[6]", "value": "BQL (BQL = Below lower limit of quantitation (0.0500 ng/mL for Compound 18)"}, {"measurement": "Compound 18 Plasma Conc.", "setting": "[6]", "value": "BQL (BQL = Below lower limit of quantitation (0.0500 ng/mL for Compound 18)"}, {"measurement": "Compound 18 Vitreous Humor Conc.", "setting": "[6]", "value": "BQL (BQL = Below lower limit of quantitation (0.0500 ng/mL for Compound 18)"}, {"measurement": "Final Compound 18 Optic Nerve Conc.", "setting": "[6]", "value": "26.2 ng/g and 108 ng/g and 50.6 ng/g"}, {"measurement": "Final Compound 18 Iris/Ciliary Body Conc.", "setting": "[7]", "value": "2.90 ng/g and 0 ng/g (2×)"}, {"measurement": "Final Compound 18 Lens Conc.", "setting": "[7]", "value": 0, "unit": "ng/g"}, {"measurement": "Final Compound 18 Retina Conc.", "setting": "[7]", "value": "8.70 ng/g and 3.64 ng/g and 9.16 ng/g"}, {"measurement": "Compound 18 Lens Homogenate Conc.", "setting": "[6]", "value": "BQL (BQL = Below lower limit of quantitation (0.0500 ng/mL for Compound 18)"}, {"measurement": "Cornea homogenate concentration", "setting": "[6]", "value": "BQL (BQL = Below lower limit of quantitation (0.0500 ng/mL for Compound 18)"}, {"measurement": "Compound 18 Iris/Ciliary Body Homogenate Conc.", "setting": "[8]", "value": "BQL (BQL = Below lower limit of quantitation (0.0500 ng/mL for Compound 18)"}, {"measurement": "Compound 18 Optic Nerve Homogenate Conc.", "setting": "[8]", "value": "1.31 ng/mL and 5.41 ng/mL and 2.53 ng/mL"}, {"measurement": "Compound 18 Retina Homogenate Conc.", "setting": "[8]", "value": "0.435 ng/mL and 0.182 ng/mL and 0.458 ng/mL"}, {"measurement": "Compound 18 Trahecular Meshwork Homogenate Conc.", "setting": "[8]", "value": "BQL (BQL = Below lower limit of quantitation (0.0500 ng/mL for Compound 18)"}, {"measurement": "tissue of highest concentration", "setting": "TD phase plasma and ocular tissues", "value": "highest in optic nerve and sclera/choroid"}, {"measurement": "AUC0-8", "setting": "aqueous humor, vitreous humor, plasma, and lens (relatively low exposure)", "value": "0.02-1.2 h*ng/mL or h*ng/g"}, {"measurement": "AUC0-8", "setting": "cornea, Day 7, from mean concentrations", "value": 209, "unit": "ng·h/g"}, {"measurement": "AUC0-8", "setting": "iris/ciliary body, Day 7, from mean concentrations", "value": 150, "unit": "ng·h/g"}, {"measurement": "AUC0-8", "setting": "lens, Day 7, from mean concentrations", "value": 1.19, "unit": "ng·h/g"}, {"measurement": "concentration at 1 h", "setting": "male, New Zealand white, rabbit, aqueous humor, other: ocular instillation (eye drop), 0.8 mg/kg/day, TD Phase, Mean, BQL set to 0, read-out: Compound 18 Aqueous Humor Conc.", "value": 0.063, "unit": "ng/mL"}, {"measurement": "concentration at 1 h", "setting": "male, New Zealand white, rabbit, aqueous humor, other: ocular instillation (eye drop), 0.8 mg/kg/day, TD Phase, individual animals, read-out: Compound 18 Aqueous Humor Conc.", "value": 0.189, "unit": "ng/mL"}, {"measurement": "concentration at 4 h", "setting": "male, New Zealand white, rabbit, iris/ciliary body homogenate, topical, 2 mg/day, TD Phase, Group 3, 4 h, individual animals, homogenate dilution factor 20, read-out: Compound 18 Iris/Ciliary Body Homogenate Conc.", "value": 0.289, "unit": "ng/mL"}, {"measurement": "concentration at 8 h", "setting": "male, New Zealand white, rabbit, iris/ciliary body homogenate, topical, 2 mg/day, TD Phase, Group 3, 8 h, individual animals, homogenate dilution factor 20, read-out: Compound 18 Iris/Ciliary Body Homogenate Conc.", "value": 0.145, "unit": "ng/mL"}, {"measurement": "concentration at 1 h", "setting": "male, New Zealand white, rabbit, iris/ciliary body, topical, 0.798 mg/kg/day, TD Phase, Mean, read-out: Final Compound 18 Iris/Ciliary Body Conc.", "value": 107, "unit": "ng/g"}, {"measurement": "concentration at 0.5 h", "setting": "male, New Zealand white, rabbit, iris/ciliary body, topical, 0.798 mg/kg/day, TD Phase, Group 3, 0.5 h, Mean, read-out: Final Compound 18 Iris/Ciliary Body Conc.", "value": 90.1, "unit": "ng/g"}]}
